# According to patent US9127003B2, “2-(azaindol-2-yl)benzimidazoles as PAD4 inhibitors” (Glaxo Group Limited, priority 2012, dated 2015):
# Values joined by “and” are separate entries in the source; they are usually repeats but may differ in a detail not shown here. Equal values may be shown once. Where a name gives a salt, the structure may show the parent alone.
# Experiments:
# [1] = molecular target: T1, Recombinant human PAD4 (residues 1-663) (Homo sapiens, UniProt Q9UM07); assay: PAD4 enzyme assay (NH3 release, BAEE substrate, fluorescence); assay type: biochemical; conditions: PAD4 enzyme assay above (Conditions A or B) or similar assays; read-out: mean pIC50 (converted)
# T1 construct: Recombinant human PAD4 (residues 1-663); GST (N, cleaved yes); made in house; host or cells: E. coli
# T1 sequence (Q9UM07 whole entry, the tested form may be a part): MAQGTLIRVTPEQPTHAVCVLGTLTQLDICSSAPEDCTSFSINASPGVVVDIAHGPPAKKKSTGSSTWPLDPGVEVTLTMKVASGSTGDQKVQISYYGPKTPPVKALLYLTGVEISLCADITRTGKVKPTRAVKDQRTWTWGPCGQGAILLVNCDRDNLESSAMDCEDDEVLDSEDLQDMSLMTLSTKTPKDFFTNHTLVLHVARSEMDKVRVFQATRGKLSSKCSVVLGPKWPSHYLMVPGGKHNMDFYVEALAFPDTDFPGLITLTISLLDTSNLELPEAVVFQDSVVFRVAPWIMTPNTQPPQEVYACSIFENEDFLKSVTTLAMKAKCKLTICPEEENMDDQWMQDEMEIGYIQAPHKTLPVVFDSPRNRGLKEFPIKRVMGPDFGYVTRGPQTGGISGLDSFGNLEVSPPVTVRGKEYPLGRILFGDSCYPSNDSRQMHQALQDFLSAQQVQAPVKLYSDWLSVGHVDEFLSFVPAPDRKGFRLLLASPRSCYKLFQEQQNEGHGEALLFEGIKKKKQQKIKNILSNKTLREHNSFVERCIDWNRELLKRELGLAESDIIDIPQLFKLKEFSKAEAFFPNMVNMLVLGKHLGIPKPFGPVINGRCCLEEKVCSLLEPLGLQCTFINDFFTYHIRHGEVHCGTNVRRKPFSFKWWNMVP
# Description: Recombinant human PAD4 (residues 1-663) was expressed in E. coli as an N-terminal GST-tagged fusion protein. During purification of the protein, the GST tag was removed by cleavage with PreScission Protease (GE Healthcare). Activity of the final product was determined using a FLINT NH3 release assay.
# (§1) 8 μl of PAD4 enzyme diluted to an assay concentration of 75 nm in assay buffer (a).: (100 mM HEPES, 50 mM NaCl, 2 mM DTT and 0.6 mg/mIBSA pH 8), or in assay buffer (b).: (100 mM HEPES, 50 mM NaCl, 2 mM DTT, 7.5% glycerol and 1.5 mM CHAPS pH 8), and added to wells containing 0.1 μl of various concentrations of compound or DMSO vehicle (0.8% final) in a Greiner high volume 384 well black plate. Following 30 mins pre-incubation at room temperature, the reaction was initiated by the addition of 4 μl of substrate buffer containing 3 mM N-a-benzoyl-L-arginine ethyl ester (BAEE), 100 mM HEPES, 50 mM NaCl, 600 uM CaCl2 (2H2O) and 2 mM DTT, pH 8.0. The reaction was stopped after 100 mins with the addition of 38 μl stop/detection buffer containing 50 mM EDTA, 2.6 mM phthalaldehyde and 2.6 mM DTT. Assay incubated at room temperature for 90 mins before measuring fluorescent signal (λex 413/λem 476) on an Envision plate reader (Perkin Elmer Life Sciences, Waltham, Mass., USA)
# as §1, with “of 30 nM” for “of 75 nm”, “buffer” for “buffer (a).:”, “mg/mIBSA” for “mg/mIBSA pH 8), or in assay buffer (b).: (100 mM HEPES, 50 mM NaCl, 2 mM DTT, 7.5% glycerol and 1.5 mM CHAPS”, “after 60” for “after 100”, “(λex 405/λem 460)” for “(λex 413/λem 476)”
# [2] = molecular target: T2, Recombinant human PAD2 (residues 1-665) (Homo sapiens, UniProt Q9Y2J8); assay: PAD2 enzyme assay (NH3 release, BAEE substrate, fluorescence); assay type: biochemical; conditions: PAD2 enzyme assay above or similar assays; read-out: mean pIC50 (converted)
# T2 construct: Recombinant human PAD2 (residues 1-665); 6His-FLAG (N); made in house; host or cells: baculovirus-infected Sf9 insect cells
# T2 sequence (Q9Y2J8 whole entry, the tested form may be a part): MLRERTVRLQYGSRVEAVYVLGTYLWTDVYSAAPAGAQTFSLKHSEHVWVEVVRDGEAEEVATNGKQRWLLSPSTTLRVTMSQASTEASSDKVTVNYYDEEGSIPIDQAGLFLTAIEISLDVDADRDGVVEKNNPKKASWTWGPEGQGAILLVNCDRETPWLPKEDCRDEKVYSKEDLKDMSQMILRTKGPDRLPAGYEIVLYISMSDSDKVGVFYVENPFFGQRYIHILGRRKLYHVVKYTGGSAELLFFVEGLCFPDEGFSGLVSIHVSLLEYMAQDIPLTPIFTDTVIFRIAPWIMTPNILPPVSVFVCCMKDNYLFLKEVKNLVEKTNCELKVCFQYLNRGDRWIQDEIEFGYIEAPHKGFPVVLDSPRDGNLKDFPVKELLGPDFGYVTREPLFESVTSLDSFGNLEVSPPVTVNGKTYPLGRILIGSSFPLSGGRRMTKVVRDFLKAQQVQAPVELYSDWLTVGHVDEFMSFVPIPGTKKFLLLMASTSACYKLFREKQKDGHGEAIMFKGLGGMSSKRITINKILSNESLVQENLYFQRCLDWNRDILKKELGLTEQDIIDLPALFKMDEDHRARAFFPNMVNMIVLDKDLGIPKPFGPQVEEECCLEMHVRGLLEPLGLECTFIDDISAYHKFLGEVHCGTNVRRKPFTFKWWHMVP
# Description: Recombinant human PAD2 (residues 1-665) was expressed in baculovirus-infected Sf9 insect cells as an N-terminal 6His-FLAG-tagged fusion protein. Activity of the final product was determined using a FLINT NH3 release assay.
# 8 μl of PAD2 enzyme diluted to an assay concentration of 30 nM in assay buffer (100 mM HEPES, 50 mM NaCl, 2 mM DTT, 7.5% glycerol and 1.5 mM CHAPS pH 8), and added to wells containing 0.1 μl of various concentrations of compound or DMSO vehicle (0.8% final) in a Greiner high volume 384 well black plate. Following 30 mins pre-incubation at room temperature, the reaction was initiated by the addition of 4 μl of substrate buffer containing 180 uM N-a-benzoyl-L-arginine ethyl ester (BAEE), 100 mM HEPES, 50 mM NaCl, 240 uM CaCl2 (2H2O) and 2 mM DTT, pH 8.0. The reaction was stopped after 90 mins with the addition of 38 μl stop/detection buffer containing 50 mM EDTA, 2.6 mM phthalaldehyde and 2.6 mM DTT. Assay incubated at room temperature for 90 mins before measuring fluorescent signal (λex 405/λem 460) on an Envision plate reader (Perkin Elmer Life Sciences, Waltham, Mass., USA)
IC50 [1],IC50 [2],SMILES
0.0316 to 10 µM,,"CCn1c(-c2nc3cc(C(=O)N4CCCC(N)C4)ccc3n2C)cc2cccnc21 (centres unmarked) [Example 12, (3-Aminopiperidin-1-yl)(2-(1-ethyl-1H-pyrrolo[2,3-b]pyridin-2-yl)-1-methyl-1H-benzo[d]imidazol-5-yl)methanone]"
0.0316 to 10 µM,,"CCn1c(-c2nc3cc(C(=O)N4CCC[C@@H](N)C4)cc(OC)c3n2CC(C)C)cc2cccnc21 [Example 20, (R)-(3-Aminopiperidin-1-yl)(2-(1-ethyl-1H-pyrrolo[2,3-b]pyridin-2-yl)-1-isobutyl-7-methoxy-1H-benzo[d]imidazol-5-yl)methanone, hydrochloride]"
0.0316 to 10 µM,,"COc1cc(C(=O)N2CCC[C@@H](N)C2)cc2nc(-c3cc4cccnc4n3CC(F)(F)F)n(C)c12 [Example 11A, (R)-(3-Aminopiperidin-1-yl)(7-methoxy-1-methyl-2-(1-(2,2,2-trifluoroethyl)-1H-pyrrolo[2,3-b]pyridin-2-yl)-1H-benzo[d]imidazol-5-yl)methanone]"
0.0316 to 10 µM,63.1 to 79.4 µM,"COc1cc(C(=O)N2CCC[C@@H](N)C2)cc2nc(-c3cc4cccnc4n3CC(C)C)n(C)c12 [Example 22, (R)-(3-Aminopiperidin-1-yl)(2-(1-isobutyl-1H-pyrrolo[2,3-b]pyridin-2-yl)-7-methoxy-1-methyl-1H-benzo[d]imidazol-5-yl)methanone, hydrochloride]"
0.0316 to 10 µM,,"CCn1c(-c2nc3cc(C(=O)N4CCC[C@@H](N)C4)ccc3n2C)cc2cccnc21 [Example 2A, (R)-(3-Aminopiperidin-1-yl)(2-(1-ethyl-1H-pyrrolo[2,3-b]pyridin-2-yl)-1-methyl-1H-benzo[d]imidazol-5-yl)methanone]"
0.0316 to 10 µM,,"CCC(C)Cn1c(-c2nc3cc(C(=O)N4CCC[C@@H](N)C4)cc(OC)c3n2C)cc2cccnc21 (stereo partly drawn) [Example 17, ((R)-3-Aminopiperidin-1-yl)(7-methoxy-1-methyl-2-(1-(2-methylbutyl)-1H-pyrrolo[2,3-b]pyridin-2-yl)-1H-benzo[d]imidazol-5-yl)methanone]"
0.0316 to 10 µM,,"COc1cc(C(=O)N2C[C@@H](N)CC[C@H]2C)cc2nc(-c3cc4cccnc4n3CC3CC3)n(C)c12 (single isomer, unassigned) [Example 23, ((cis)-5-Amino-2-methylpiperidin-1-yl)(2-(1-(cyclopropylmethyl)-1H-pyrrolo[2,3-b]pyridin-2-yl)-7-methoxy-1-methyl-1H-benzo[d]imidazol-5-yl)methanone, hydrochloride]"
0.0316 to 10 µM,,"CCn1c(-c2nc3cc(C(=O)N4CCC[C@@H](N)C4)cc(OC)c3n2CCOC)cc2cccnc21 [Example 18, (R)-(3-Aminopiperidin-1-yl)(2-(1-ethyl-1H-pyrrolo[2,34]pyridin-2-yl)-7-methoxy-1-(2-methoxyethyl)-1H-benzo[d]imidazol-5-yl)methanone, hydrochloride]"
0.0316 to 10 µM,,"CCn1c(-c2nc3cc(C(=O)N4CCC[C@@H](N)C4)ccc3n2C)cc2cc(OC)cnc21 [Example 6, (R)-(3-Aminopiperidin-1-yl)(2-(1-ethyl-5-methoxy-1H-pyrrolo[2,3-b]pyridin-2-yl)-1-methyl-1H-benzo[d]imidazol-5-yl)methanone]"
0.0316 to 10 µM and 0.126 µM,63.1 to 79.4 µM and > 79.4 µM,"COc1cc(C(=O)N2CCC[C@@H](N)C2)cc2nc(-c3cc4cccnc4n3CC(F)(F)F)n(C)c12 [Example 11B, (R)-(3-Aminopiperidin-1-yl)(7-methoxy-1-methyl-2-(1-(2,2,2-trifluoroethyl)-1H-pyrrolo[2,3-b]pyridin-2-yl)-1H-benzo[d]imidazol-5-yl)methanone, hydrochloride]"
0.0316 to 10 µM,,"CCn1c(-c2nc3cc(C(=O)N4CCC[C@@H](N)C4)ccc3n2C)cc2ccncc21 [Example 3, (R)-(3-Aminopiperidin-1-yl)(2-(1-ethyl-1H-pyrrolo[2,3-c]pyridin-2-yl)-1-methyl-1H-benzo[d]imidazol-5-yl)methanone]"
0.0316 to 10 µM,,"COc1cc(C(=O)N2CCC[C@@H](N)C2)cc2nc(-c3cc4cccnc4n3CC(C)(C)OC)n(C)c12 [Example 21, (R)-(3-Aminopiperidin-1-yl)(7-methoxy-2-(1-(2-methoxy-2-methylpropyl)-1H-pyrrolo[2,3-b]pyridin-2-yl)-1-methyl-1H-benzo[d]imidazol-5-yl)methanone]"
,63.1 to 79.4 µM,"CCn1c(-c2nc3cc(C(=O)N4CCC[C@@H](N)C4)ccc3n2C)cc2cccnc21 [Example 2B, (R)-(3-Aminopiperidin-1-yl)(2-(1-ethyl-1H-pyrrolo[2,3-b]pyridin-2-yl)-1-methyl-1H-benzo[d]imidazol-5-ylmethanone hydrochloride]"
0.0316 to 10 µM,,"CCn1c(-c2nc3cc(C(=O)N4CCCC(N)C4)ccc3n2C)cc2cnccc21 (centres unmarked) [Example 1, 1-{[2-(1-Ethyl-1H-pyrrolo[3,2-c]pyridin-2-yl)-1-methyl-1H-benzimidazol-5-yl]carbonyl}-3-piperidinamine]"
,63.1 to 79.4 µM and > 79.4 µM,"CCn1c(-c2nc3cc(C(=O)N4CCC[C@@H](N)C4)cc(OC)c3n2C)cc2cccnc21 [Example 9B, (R)-(3-Aminopiperidin-1-yl)(2-(1-ethyl-1H-pyrrolo[2,3-b]pyridin-2-yl)-7-methoxy-1-methyl-1H-benzo[d]imidazol-5-yl)methanone, hydrochloride]"
0.0316 to 10 µM,,"COc1cc(C(=O)N2C[C@H](N)CC[C@@H]2C)cc2nc(-c3cc4cccnc4n3CC3CC3)n(C)c12 (single isomer, unassigned) [Example 24, ((cis)-5-Amino-2-methylpiperidin-1-yl)(2-(1-(cyclopropylmethyl)-1H-pyrrolo[2,3-b]pyridin-2-yl)-7-methoxy-1-methyl-1H-benzo[d]imidazol-5-yl)methanone, hydrochloride]"
0.0316 to 10 µM,,"Cn1c(-c2cc3cccnc3n2CC(F)(F)F)nc2cc(C(=O)N3CCC[C@@H](N)C3)ccc21 [Example 4A, (R)-(3-Aminopiperidin-1-yl)(1-methyl-2-(1-(2,2,2-trifluoroethyl)-1H-pyrrolo[2,3-b]-pyridin-2-yl)-1H-benzo[d]imidazol-5-yl)methanone]"
0.0316 to 10 µM,,"CCn1c(-c2nc3cc(C(=O)N4CCC[C@@H](N)C4)ccc3n2C)cc2cc(O)cnc21 [Example 8, 2-(5-{[(3R)-3-Amino-1-piperidinyl]carbonyl}-1-methyl-1H-benzimidazol-2-yl)-1-ethyl-1H-pyrrolo[2,3-b]pyridin-5-ol]"
0.0316 to 10 µM,,"CCn1c(-c2nc3cc(C(=O)N4CCC[C@@H](N)C4)ccc3n2C)cc2cc(OC)ncc21 [Example 7, (R)-(3-Aminopiperidin-1-yl)(2-(1-ethyl-5-methoxy-1H-pyrrolo[2,3-c]pyridin-2-yl)-1-methyl-1H-benzo[d]imidazol-5-yl)methanone]"
0.0316 to 10 µM,,"CCn1c(-c2nc3cc(C(=O)N4CCC[C@@H](N)C4)cc(OC)c3n2C)cc2cccnc21 [Example 9A, (R)-(3-Aminopiperidin-1-yl)(2-(1-ethyl-1H-pyrrolo[2,3-b]pyridin-2-yl)-7-methoxy-1-methyl-1H-benzo[d]imidazol-5-yl)methanone]"
0.0316 to 10 µM,,"CCn1c(-c2nc3cc(C(=O)N4CCC[C@@H](N)C4)cc(OC(F)(F)F)c3n2C)cc2cccnc21 [Example 15, (R)-(3-Aminopiperidin-1-yl)(2-(1-ethyl-1H-pyrrolo[2,3-b]pyridin-2-yl)-1-methyl-7-(trifluoromethoxy)-1H-benzo[d]imidazol-5-yl)methanone]"
